# Experimental data taken from patent US9580390B2, “Indazole compounds as kinase inhibitors and method of treating cancer with same” (University Health Network, priority 2011, dated 2017).
# Legend:
# human TTK = target: T1, human TTK (Homo sapiens, UniProt P33981); test: TTK inhibition assay (indirect ELISA); assay type: biochemical; conditions: read-out: TTK IC50 Range
# T1 construct: amino terminal GST fusion of full length human TTK; purchased Invitrogen
# T1 sequence (P33981 1-857): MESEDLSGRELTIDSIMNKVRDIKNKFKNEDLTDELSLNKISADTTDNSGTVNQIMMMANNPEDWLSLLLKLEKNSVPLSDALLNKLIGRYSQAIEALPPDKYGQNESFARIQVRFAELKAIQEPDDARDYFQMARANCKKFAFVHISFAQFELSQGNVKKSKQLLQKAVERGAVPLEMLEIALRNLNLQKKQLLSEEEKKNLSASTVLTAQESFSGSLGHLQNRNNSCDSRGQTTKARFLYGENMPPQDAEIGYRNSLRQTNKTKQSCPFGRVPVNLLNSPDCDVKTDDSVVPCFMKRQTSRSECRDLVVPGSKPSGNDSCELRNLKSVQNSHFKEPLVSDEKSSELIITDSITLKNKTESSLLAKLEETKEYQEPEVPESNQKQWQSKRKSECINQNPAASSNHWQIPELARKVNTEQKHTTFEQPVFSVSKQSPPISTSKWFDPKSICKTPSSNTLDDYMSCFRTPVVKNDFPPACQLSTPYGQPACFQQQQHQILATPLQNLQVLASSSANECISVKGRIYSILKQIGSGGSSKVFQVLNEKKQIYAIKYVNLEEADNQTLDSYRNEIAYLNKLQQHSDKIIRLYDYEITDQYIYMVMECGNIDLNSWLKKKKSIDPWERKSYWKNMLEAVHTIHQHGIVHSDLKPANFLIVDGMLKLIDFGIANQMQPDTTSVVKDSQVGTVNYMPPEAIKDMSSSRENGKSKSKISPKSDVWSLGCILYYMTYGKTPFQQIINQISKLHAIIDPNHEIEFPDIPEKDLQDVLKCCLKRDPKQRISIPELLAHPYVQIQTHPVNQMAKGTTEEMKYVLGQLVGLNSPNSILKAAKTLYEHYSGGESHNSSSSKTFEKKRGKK
# Breast cancer cells = test: Cancer cell line growth inhibition (SRB assay); assay type: cell-based; conditions: Homo sapiens; MDA-MB-468; read-out: Cancer Cell Line GI50 Range MDA-MB-468
# [1] = test system: colon cancer cells (HCT116); test: Cancer cell line growth inhibition (SRB assay); assay type: cell-based; conditions: Homo sapiens, HCT-116; read-out: Cancer Cell Line GI50 Range HCT116
# [2] = test system: ovarian cancer cells (PA-1); test: Cancer cell line growth inhibition (SRB assay); assay type: cell-based; conditions: Homo sapiens, PA-1; read-out: Cancer Cell Line GI50 Range PA-1
Structure (SMILES),IC50 (human TTK) [nM],GI50 (Breast cancer cells) [nM],GI50 [1] [nM],GI50 [2] [nM]
"CC(C)CC(NC(=O)c1ccc2[nH]nc(-c3ccc(O[C@H]4C[C@H]5CC[C@@H](C4)N5C4COC4)cc3)c2c1)c1ccccc1 (stereo partly drawn) [Example A338, N-(3-methyl-1-phenylbutyl)-3-(4-(((1R,3R,5S)-8-(oxetan-3-yl)-8-azabicyclo[3.2.1]octan-3-yl)oxy)phenyl)-1H-indazole-5-carboxamide]",< 100,100 to 500,100 to 500,100 to 500
"CC(C)CC(NC(=O)c1ccc2[nH]nc(-c3ccc(O[C@H]4C[C@H]5CC[C@@H](C4)N5C=O)cc3)c2c1)c1ccccc1 (stereo partly drawn) [Example A340, 3-(4-(((1R,3R,5S)-8-formyl-8-azabicyclo[3.2.1]octan-3-yl)oxy)phenyl)-N-(3-methyl-1-phenylbutyl)-1H-indazole-5-carboxamide]",< 100,100 to 500,100 to 500,< 100
"CCC(CC)C(NC(=O)c1ccc2[nH]nc(-c3ccc(O[C@H]4C[C@H]5CC[C@@H](C4)N5C4COC4)cc3)c2c1)c1ccccn1 (stereo partly drawn) [Example A341, N-(2-ethyl-1-(pyridin-2-yl)butyl)-3-(4-(((1R,3R,5S)-8-(oxetan-3-yl)-8-azabicyclo[3.2.1]octan-3-yl)oxy)phenyl)-1H-indazole-5-carboxamide]",< 100,100 to 500,100 to 500,100 to 500
"CCC[C@H](NC(=O)c1ccc2[nH]nc(-c3ccc(OC4CC5CCC(C4)N5C4COC4)cc3)c2c1)c1ccccc1 (stereo partly drawn) [Example A344, 3-(4-(((1R,3R,5S)-8-(oxetan-3-yl)-8-azabicyclo[3.2.1]octan-3-yl)oxy)phenyl)-N-((S)-1-phenylbutyl)-1H-indazole-5-carboxamide]",< 100,> 500,> 500,100 to 500
"O=C(NC(c1ccccc1)C1CCC1)c1ccc2[nH]nc(-c3ccc(O[C@H]4C[C@H]5CC[C@@H](C4)N5C4COC4)cc3)c2c1 (stereo partly drawn) [Example A345, N-(cyclobutyl(phenyl)methyl)-3-(4-(((1R,3R,5S)-8-(oxetan-3-yl)-8-azabicyclo[3.2.1]octan-3-yl)oxy)phenyl)-1H-indazole-5-carboxamide]",< 100,100 to 500,100 to 500,100 to 500
"O=CN1[C@@H]2CC[C@H]1C[C@@H](Oc1ccc(-c3n[nH]c4ccc(C(=O)NC(c5ccccc5)C5CCC5)cc34)cc1)C2 (stereo partly drawn) [Example A346, N-(cyclobutyl(phenyl)methyl)-3-(4-(((1R,3R,5S)-8-formyl-8-azabicyclo[3.2.1]octan-3-yl)oxy)phenyl)-1H-indazole-5-carboxamide]",< 100,100 to 500,100 to 500,100 to 500
"O=C(N[C@H](c1ccccn1)C1CCCC1)c1ccc2[nH]nc(-c3ccc(OC4CC5CCC(C4)N5C4COC4)cc3)c2c1 (stereo partly drawn) [Example A347, N-((S)-cyclopentyl(pyridin-2-yl)methyl)-3-(4-(((1R,3R,5S)-8-(oxetan-3-yl)-8-azabicyclo[3.2.1]octan-3-yl)oxy)phenyl)-1H-indazole-5-carboxamide]",< 100,100 to 500,< 100,100 to 500
"O=CN1C2CCC1CC(Oc1ccc(-c3n[nH]c4ccc(C(=O)N[C@H](c5ccccn5)C5CCCC5)cc34)cc1)C2 (stereo partly drawn) [Example A348, N-((S)-cyclopentyl(pyridin-2-yl)methyl)-3-(4-(((1R,3R,5S)-8-formyl-8-azabicyclo[3.2.1]octan-3-yl)oxy)phenyl)-1H-indazole-5-carboxamide]",< 100,< 100,< 100,< 100
"CC(C)[C@H](NC(=O)c1ccc2[nH]nc(-c3ccc(OC4CC5CCC(C4)N5C=O)nc3)c2c1)c1ccccc1Cl (stereo partly drawn) [Example A354, N-((S)-1-(2-chlorophenyl)-2-methylpropyl)-3-(6-(((1R,3R,5S)-8-formyl-8-azabicyclo[3.2.1]octan-3-yl)oxy)pyridin-3-yl)-1H-indazole-5-carboxamide]",< 100,100 to 500,100 to 500,100 to 500
"O=C(N[C@H](c1ccsc1)C1CC1)c1ccc2[nH]nc(-c3ccc(N4C5CCC4CC(O)C5)cc3)c2c1 (stereo partly drawn) [Example A365, N-((S)-cyclopropyl(thiophen-3-yl)methyl)-3-(4-((1R,3S,5S)-3-hydroxy-8-azabicyclo[3.2.1]octan-8-yl)phenyl)-1H-indazole-5-carboxamide]",< 100,< 100,< 100,< 100
"CC(C)C[C@H](NC(=O)c1ccc2[nH]nc(-c3ccc(N4CCN(C5COC5)CC4)cc3)c2c1)c1ccccc1 [Example A371, (S)-N-(3-methyl-1-phenylbutyl)-3-(4-(4-(oxetan-3-yl)piperazin-1-yl)phenyl)-1H-indazole-5-carboxamide]",< 100,100 to 500,< 100,< 100
"O=C(NC(c1ccccc1)C1CC1)c1ccc2[nH]nc(-c3ccc(O[C@H]4C[C@H]5CC[C@@H](C4)N5)cc3)c2c1 (stereo partly drawn) [Example A375, 3-(4-((1R,3R,5S)-8-azabicyclo[3.2.1]octan-3-yloxy)phenyl)-N-(cyclopropyl(phenyl)methyl)-1H-indazole-5-carboxamide]",< 100,100 to 500,< 100,< 100
"CN1C2CCC1CC(Oc1ccc(-c3n[nH]c4ccc(C(=O)N[C@@H](c5ccccn5)C5CC5)cc34)cc1)C2 (stereo partly drawn) [Example A380, N-((R)-cyclopropyl(pyridin-2-yl)methyl)-3-(4-(((1R,3R,5S)-8-methyl-8-azabicyclo[3.2.1]octan-3-yl)oxy)phenyl)-1H-indazole-5-carboxamide]",< 100,100 to 500,< 100,< 100
CN1CCC(Oc2ccc(-c3n[nH]c4ccc(C(=O)NC(c5ccccn5)C(C)(C)C)cc34)cc2)CC1 (stereo not drawn) [Example A388],< 100,> 500,100 to 500,100 to 500
"CN1C2CCC1CC(Oc1ccc(-c3n[nH]c4ccc(C(=O)NC(c5ccccn5)C5CCCC5)cc34)cc1)C2 (stereo not drawn) [Example A398, N-(cyclopentyl(pyridin-2-yl)methyl)-3-(4-((8-methyl-8-azabicyclo[3.2.1]octan-3-yl)oxy)phenyl)-1H-indazole-5-carboxamide]",< 100,< 100,< 100,< 100
CN1C2CCC1CC(Oc1ccc(-c3n[nH]c4ccc(C(=O)NC(c5ccccc5)C(F)(F)F)cc34)cc1)C2 (stereo not drawn) [Example A400],< 100,> 500,100 to 500,100 to 500
"CC(C)[C@H](NC(=O)c1ccc2[nH]nc(-c3ccc(C4CCN(C5COC5)CC4)cc3)c2c1)c1ccccc1Cl [Example A406, (S)-N-(1-(2-chlorophenyl)-2-methylpropyl)-3-(4-(4-(oxelan-3-yl)piperidin-1-yl)phenyl)-1H-indazole-5-carboxamide]",< 100,> 500,> 500,> 500
"CN1CCC(Oc2ccc(-c3n[nH]c4ccc(C(=O)NC(c5ccccn5)C5CCCCC5)cc34)cc2)CC1 (stereo not drawn) [Example A409, N-(cyclohexyl(pyridin-2-yl)methyl)-3-(4-((1-methylpiperidin-4-yl)oxy)phenyl)-1H-indazole-5-carboxamide]",< 100,100 to 500,100 to 500,100 to 500
"CC(C)[C@@H](NC(=O)c1ccc2[nH]nc(-c3ccc(N4CCN(C5COC5)CC4)cc3)c2c1)c1ccccc1Cl [Example A412, (R)-N-(1-(2-chlorophenyl)-2-methylpropyl)-3-(4-(4-(oxetan-3-yl)piperazin-1-yl)phenyl)-1H-indazole-5-carboxamide]",< 100,100 to 500,< 100,< 100
"CC(C)C[C@H](NC(=O)c1ccc2[nH]nc(-c3ccc(N4C5CCC4COC5)cc3)c2c1)c1ccccc1Cl [Example A413, 3-(4-((1R,5S)-3-oxa-8-azabicyclo[3.2.1]octan-8-yl)phenyl)-N-((S)-(2-chlorophenyl)-3-methylbulyl)-1H-indazole-5-carboxamide]",< 100,100 to 500,< 100,< 100
"CC(C)C[C@H](NC(=O)c1ccc2[nH]nc(-c3ccc(N4[C@@H]5CCC[C@H]4COC5)cc3)c2c1)c1ccccc1Cl [Example A417, 3-(4-((1R,5S)-3-oxa-9-azabicyclo[3.3.1]nonan-9-yl)phenyl)-N-((S)-(2-chlorophenyl)-3-methylbutyl)-1 H-indazole-5-carboxamide]",< 100,100 to 500,100 to 500,100 to 500
